Experimental data published in patent publication US8183235B2, “Dihydronaphthalene compound and use thereof” (Tokyo University of Science Educational Foundation …, priority 2007, dated 2012).
Where two headings read alike, the source gives them in different places.

What was measured:
[1] = biological target: 20S proteasome trypsin-like activity (Homo sapiens, UniProt Q99436); assay: Trypsin-like activity inhibition test; assay type: biochemical; conditions: for remaining activity at 10 µM: read-out: % Control, Trypsin-like Activity
MKN74 = assay: Proliferation inhibition of stomach cancer cells; assay type: cell-based; conditions: Homo sapiens, MKN-74
Protocol: (§1) As a comparison for the inhibition activity, tamoxifen citrate (TAM) was used. In the Table, the concentration units are μM.
(§2) In the same way as in Example 9, the proliferation inhibition activity of naforidaifens A to G was measured with respect to six types of stomach cancer cells (St-4, MKN1, MKN7, MKN28, MKN45, MKN74). In the Table, the concentration units are μM.

MKN7 = assay: Proliferation inhibition of stomach cancer cells; assay type: cell-based; conditions: Homo sapiens, MKN-7
Protocol: as §1, §2

MKN1 = assay: Proliferation inhibition of stomach cancer cells; assay type: cell-based; conditions: Homo sapiens, MKN-1
Protocol: as §1, §2

MKN28 = assay: Proliferation inhibition of stomach cancer cells; assay type: cell-based; conditions: Homo sapiens, MKN-28
Protocol: as §1, §2

St-4 = assay: Proliferation inhibition of stomach cancer cells; assay type: cell-based; conditions: Homo sapiens
Protocol: as §1, §2

MKN45 = assay: Proliferation inhibition of stomach cancer cells; assay type: cell-based; conditions: Homo sapiens, MKN-45
Protocol: as §1, §2

20S proteasome = 20S proteasome (Homo sapiens, UniProt P28072+P28074+Q99436); assay: Proteasome inhibition activity, overall judgement; assay type: biochemical; conditions: for Proteasome selectivity: judgement; for The evaluations (proteasome inhibition activity): overall judgement positive/negative
SF-295 = assay: Inhibition of propagation of central nervous system cancer cells (sulforhodamin B); assay type: cell-based; conditions: Homo sapiens, 48 h; SF-295, two days of cultivation
From the text: as §1

SF-268 = assay: as above; assay type: cell-based; conditions: Homo sapiens, 48 h; SF-268, two days of cultivation
From the text: as §1

SF-539 = assay: as above; assay type: cell-based; conditions: Homo sapiens, 48 h; SF-539, two days of cultivation
From the text: as §1

SNB-75 = assay: as above; assay type: cell-based; conditions: Homo sapiens, 48 h; SNB-75, two days of cultivation
From the text: as §1

U251 = assay: as above; assay type: cell-based; conditions: Homo sapiens, U-251, 48 h; U251, two days of cultivation
From the text: as §1

SNB-78 = assay: as above; assay type: cell-based; conditions: Homo sapiens, 48 h; SNB-78, two days of cultivation
From the text: as §1

OVCAR-5 = assay: Proliferation inhibition of ovarian cancer cells; assay type: cell-based; conditions: Homo sapiens
Protocol: as §1
(§3) In the same way as in Example 9, the proliferation inhibition activity of naforidaifens A to G was measured with respect to five types of ovarian cancer cells (OVCAR-3, OVCAR-4, OVCAR-5, OVCAR-8, AND SK-OV-3). In the Table, the concentration units are μM.

OVCAR-8 = assay: Proliferation inhibition of ovarian cancer cells; assay type: cell-based; conditions: Homo sapiens
Protocol: as §1, §3

OVCAR-3 = assay: Proliferation inhibition of ovarian cancer cells; assay type: cell-based; conditions: Homo sapiens
Protocol: as §1, §3

OVCAR-4 = assay: Proliferation inhibition of ovarian cancer cells; assay type: cell-based; conditions: Homo sapiens
Protocol: as §1, §3

SK-OV-3 = assay: Proliferation inhibition of ovarian cancer cells; assay type: cell-based; conditions: Homo sapiens
Protocol: as §1, §3

HCC2998 = assay: Proliferation inhibition of colon cancer cells; assay type: cell-based; conditions: Homo sapiens, HCC 2998
Protocol: as §1
(§4) In the same way as in Example 9, the proliferation inhibition activity of naforidaifens A to G was measured with respect to five types of colon cancer cells (HCC2998, KM-12, HT-29, HCT-15, and HCT-116). In the Table, the concentration units are μM.

HT-29 = assay: Proliferation inhibition of colon cancer cells; assay type: cell-based; conditions: Homo sapiens
Protocol: as §1, §4

KM-12 = assay: Proliferation inhibition of colon cancer cells; assay type: cell-based; conditions: Homo sapiens, KM12
Protocol: as §1, §4

HCT-116 = assay: Proliferation inhibition of colon cancer cells; assay type: cell-based; conditions: Homo sapiens
Protocol: as §1, §4

HCT-15 = assay: Proliferation inhibition of colon cancer cells; assay type: cell-based; conditions: Homo sapiens
Protocol: as §1, §4

[2] = biological target: 20S proteasome caspase-like activity (Homo sapiens, UniProt P28072); assay: Caspase-like activity inhibition test; assay type: biochemical; conditions: for remaining activity at 10 µM: read-out: % Control, Caspase-like Activity
α-chymotrypsin = α-chymotrypsin (Bos taurus, UniProt P00766); assay: α-Chymotrypsin-like activity inhibition test; assay type: biochemical
Protocol: α-Chymotrypsin-Like Activity Inhibition Test
(§5) 1) To 20S proteasome, naforidaifen B adjusted to a concentration of 10 μM was added, and incubated at 30° C. for 10 min.
2) To the above test system, fluorescence labeled α-chymotrypsin including a 20S proteasome segmenting sequence was added, and reacted for 1 hr at 30° C.
(§6) 3) The fluorescent substance (AMC) released by the above reaction was excited with 360 nm light and assayed with 460 nm light.
(§7) 4) A test system to which naforidaifen B was not added was measured in the same way as (1) to (3) above, and the enzyme activity for the case of using naforidaifen B was measured.
(§8) 5) Stepwise diluted solutions containing naforidaifen B were prepared, and after carrying out the same evaluations as in (1) to (4), the 50% inhibition concentration (IC50) was determined.
6) As a positive control of the enzyme activity, the well-known proteasome inhibitor Clasto-Lactacystin β-Lactone (Lactacystin activator) and MGI32 were evaluated with the steps (1) to (5).

Cathepsin B = assay: Cathepsin-like activity inhibition test; assay type: biochemical
Protocol: Cathepsin-Like Activity Inhibition Test
as §5
2) To the above test system, fluorescence labeled cathepsin including a 20S proteasome segmenting sequence was added, and reacted for 1 hr at 30° C.
as §6, §7, §8
6) As a positive control of the enzyme activity, the known proteasome inhibitor Clasto-Lactacystin β-Lactone (Lactacystin activator) and MGI32 were evaluated with the steps (1) to (5).

[3] = biological target: 20S proteasome chymotrypsin-like activity (Homo sapiens, UniProt P28074); assay: Chymotrypsin-like activity inhibition test; assay type: biochemical; conditions: for remaining activity at 10 µM: read-out: % Control, Chymotrypsin-like Activity
[4] = test system: central nervous system cancer cells; assay: Proliferation inhibition, central nervous system cancer cell panel (summary); assay type: cell-based; conditions: in general with respect to various central nervous system cancer cells; read-out: cytotoxic activity (extent of effective concentration)
From the text: as §1

ovarian cancer cells = assay: Proliferation inhibition, ovarian cancer cell panel (summary); assay type: cell-based; conditions: all of the five types of ovarian cancer cell lines; read-out: effective concentration
Protocol: as §1, §3

stomach cancer cells = assay: Proliferation inhibition, stomach cancer cell panel (summary); assay type: cell-based; conditions: all of the six types of stomach cancer cell lines; read-out: effective concentration
Protocol: as §1, §2

colon cancer cells = assay: Proliferation inhibition, colon cancer cell panel (summary); assay type: cell-based; conditions: all of the five types of colon cancer cell lines; read-out: effective concentration
Protocol: as §1, §4

| Compound | GI50 (MKN74) [nM] | GI50 (MKN7) [nM] | GI50 (MKN1) [nM] | GI50 (MKN28) [nM] | GI50 (St-4) [nM] | GI50 (MKN45) [nM] | The evaluations (proteasome inhibition activity) (20S proteasome) | GI50 (SF-295) [nM] | GI50 (SF-268) [nM] | GI50 (SF-539) [nM] | GI50 (SNB-75) [nM] | GI50 (U251) [nM] | GI50 (SNB-78) [nM] | GI50 (OVCAR-5) [nM] | GI50 (OVCAR-8) [nM] | GI50 (OVCAR-3) [nM] | GI50 (OVCAR-4) [nM] | GI50 (SK-OV-3) [nM] | GI50 (HCC2998) [nM] | GI50 (HT-29) [nM] | further results |
| --- | --- | --- | --- | --- | --- | --- | --- | --- | --- | --- | --- | --- | --- | --- | --- | --- | --- | --- | --- | --- | --- |
| c1ccc(C2=C(c3ccc(OCCN4CCCCC4)cc3)c3ccc(OCCN4CCCCC4)cc3CC2)cc1 [Naforidaifen C, 4-[4-(2-piperidine-1-yl-ethoxy)phenyl]-7-(2-piperidine-1-yl-ethoxy)-3-phenyl-1,2-dihydronaphthalene] | 1200 | 1550 | 1660 | 2510 | 1580 | 2140 | positive | 1740 | 1740 | 1480 | 1510 | 1480 | 1820 | 1260 | 2400 | 1660 | 2090 | 2040 | 1350 | 550 | IC50 [1]: > 10 µM; remaining activity at 10 µM [1]: 196%; Proteasome selectivity (20S proteasome): present; GI50 (KM-12): 1820 nM; GI50 (HCT-116): 1170 nM; GI50 (HCT-15): 1380 nM; IC50 [2]: 5.1 µM; remaining activity at 10 µM [2]: 31.3%; α-chymotrypsin inhibition (α-chymotrypsin): none; Cathepsin B inhibition (Cathepsin B): none; IC50 [3]: 3.2 µM; remaining activity at 10 µM [3]: 25.9%; IC50 [4]: 1400 to 1900 nM |
| c1ccc(C2=C(c3ccc(OCCN4CCCCCC4)cc3)c3ccc(OCCN4CCCCCC4)cc3CC2)cc1 [Naforidaifen F, 4-[4-(2-hexahydro-1H-azepin-1-yl-ethoxy)phenyl]-7-(2-hexahydro-1H-azepin-1-yl-ethoxy)-3-phenyl-1,2-dihydronaphthalene] | 1170 | 1230 | 1550 | 1820 | 1580 | 1580 | positive | 1780 | 1700 | 1660 | 1740 | 1480 | 1700 | 1320 | 2000 | 1410 | 1780 | 1910 | 1070 | 501 | IC50 [1]: > 10 µM; remaining activity at 10 µM [1]: 251%; Proteasome selectivity (20S proteasome): present; IC50 (ovarian cancer cells): 1200 to 1900 nM; IC50 (stomach cancer cells): 1100 to 1800 nM; GI50 (KM-12): 1590 nM; GI50 (HCT-116): 1230 nM; GI50 (HCT-15): 1230 nM; IC50 [2]: 5.1 µM; remaining activity at 10 µM [2]: 39.1%; α-chymotrypsin inhibition (α-chymotrypsin): none; IC50 (colon cancer cells): 500 to 1500 nM; Cathepsin B inhibition (Cathepsin B): none; IC50 [3]: 4.3 µM; remaining activity at 10 µM [3]: 34.2% |
| CN(C)CCCOc1ccc(C2=C(c3ccccc3)CCc3cc(OCCCN(C)C)ccc32)cc1 [Naforidaifen G, 4-[4-(3-dimethylamino-1-yl-propoxy)phenyl]-7-(3-dimethylamino-1-yl-propoxy)-3-phenyl-1,2-dihydronaphthalene] | 1150 | 1320 | 1510 | 1620 | 1480 | 1480 | negative | 1780 | 1580 | 1480 | 1620 | 1480 | 1780 | 1290 | 1860 | 1510 | 1780 | 1740 | 1290 | 490 | IC50 (ovarian cancer cells): 1200 to 1900 nM; IC50 (stomach cancer cells): 1100 to 1800 nM; GI50 (KM-12): 1660 nM; GI50 (HCT-116): 1100 nM; GI50 (HCT-15): 1290 nM; IC50 [3]: > 10 µM; remaining activity at 10 µM ([3]; Concentration 10 μM): 105%; IC50 [4]: 1400 to 1900 nM |
